In the oligonucleotide strings, read from the 5' end, every base follows the letter of its sugar. An asterisk marks phosphorothioate; unmarked linkages are phosphodiester. Other units and linkages are bracketed, terminal groups are in braces. A string of capitals states the bases alone. e = 2'-O-(2-methoxyethyl) (MOE); [5mC] = 5-methylcytosine; d = 2'-deoxy (DNA)
System: IL-12 mRNA
Assay: IL-12 mRNA in LPS-activated primary murine macrophages
Assay type: cell-based, mouse
Settings: for IL-12 mRNA expression, −IFN % UTC: 300 nM oligomeric compound and LPS, no IFN-gamma pretreatment, single experiment; for IL-12 mRNA expression, −IFN % UTC / IL-12 mRNA expression, +IFN % UTC: normalized to LPS-treated cells without oligomeric compound; for IL-12 mRNA expression, +IFN % UTC: 300 nM oligomeric compound, stimulation with IFN-gamma and LPS, average of 2 experiments; for IL-12 mRNA expression, % UTC: LPS, average of 3 treatments

| Substance | IL-12 mRNA expression, −IFN % UTC | IL-12 mRNA expression, +IFN % UTC | other results |
| --- | --- | --- | --- |
| 327963 (antisense eA*eA*e[5mC]*e[5mC]*eT*eA*eT*e[5mC]*e[5mC]*eT*eG*eA*eA*eT*eT*eA*e[5mC]*eT*eT*eG*eA*eA) [compound 327963] | 224 % UTC | 23 % UTC | – |
| 327924 (antisense eG*e[5mC]*eA*eA*eG*e[5mC]*e[5mC]*e[5mC]*eA*eG*eA*e[5mC]*e[5mC]*eG*e[5mC]*eA*eA*eA*eA*eA*eG) [compound 327924] | 171 % UTC | 88 % UTC | – |
| 327940 (antisense eG*eA*eA*e[5mC]*eA*eG*eG*eT*eA*eG*eT*e[5mC]*eT*eG*eA*eA*e[5mC]*eA*e[5mC]*eT*eG*eG*eG) [compound 327940] | 228 % UTC | 107 % UTC | – |
| 327959 (antisense e[5mC]*eA*eG*e[5mC]*e[5mC]*eG*e[5mC]*eT*eG*eT*e[5mC]*eA*e[5mC]*eA*e[5mC]*eG*e[5mC]*eA*e[5mC]*eA*eG) [compound 327959] | 183 % UTC | 20 % UTC | – |
| 327935 (antisense e[5mC]*eT*eA*e[5mC]*e[5mC]*eT*eG*e[5mC]*eA*e[5mC]*eT*eA*eT*eA*eA*eG*e[5mC]*eA*e[5mC]*eT*eT*eT*eA) [compound 327935] | 254 % UTC | 24 % UTC | – |
| 327971 (antisense eG*eG*eA*eA*eA*eT*e[5mC]*e[5mC]*e[5mC]*eT*eG*eG*e[5mC]*eA*eA*eT*eG*eT*eG*eA*eT) [compound 327971] | 146 % UTC | 17 % UTC | – |
| 327936 (antisense eA*e[5mC]*eA*eG*e[5mC]*eT*eG*eG*eT*eT*eG*eA*eA*eG*eG*eG*eG*eA*e[5mC]*e[5mC]*eA*eA) [compound 327936] | 221 % UTC | 55 % UTC | – |
| 327945 (antisense e[5mC]*eT*eG*eT*eT*e[5mC]*e[5mC]*eT*eG*e[5mC]*eT*eG*eA*eA*e[5mC]*eT*eG*eA*eG*e[5mC]*e[5mC]*eA) [compound 327945] | 202 % UTC | 68 % UTC | – |
| 129690 (antisense TTAGAATACGTCGCGTTATG; sugars from the 5' end e5 d10 e5, all phosphorothioate, methylation of C not given here) [compound 129690] | 73 % UTC | 129 % UTC | IL-12 mRNA expression, % UTC (75 nM, +IFN): 66 % UTC; IL-12 mRNA expression, % UTC (75 nM, −IFN): 114 % UTC; IL-12 mRNA expression, % UTC (150 nM, +IFN): 54 % UTC; IL-12 mRNA expression, % UTC (150 nM, −IFN): 109 % UTC; IL-12 mRNA expression, % UTC (300 nM, +IFN): 66 % UTC; IL-12 mRNA expression, % UTC (300 nM, −IFN): 101 % UTC; IL-12 mRNA expression, % UTC (600 nM, +IFN): 81 % UTC; IL-12 mRNA expression, % UTC (600 nM, −IFN): 128 % UTC |
| 327961 (antisense eG*eG*eG*eG*eT*eA*eT*eT*eT*eG*eA*e[5mC]*eA*eA*eA*e[5mC]*eT*eG*eA*e[5mC]*eA) [compound 327961] | 203 % UTC | 10 % UTC | – |
| 327958 (antisense e[5mC]*e[5mC]*eG*eG*e[5mC]*eT*eG*e[5mC]*eA*eA*e[5mC]*eA*e[5mC]*eA*eA*eG*eA*e[5mC]*eA*e[5mC]*eG*eA) [compound 327958] | 188 % UTC | 60 % UTC | – |
